Patent US12391675B2, “NLRP3 modulators” (INNATE TUMOR IMMUNITY, INC., priority 2019, dated 2025)

The molecules below were run against T1, NLRP3 (Homo sapiens, UniProt Q96P20) (assay: Measurement of IL-1β production in PMA-differentiated THP-1 cells (NLRP3 hIL1B EC50)). Settings: not given.
T1 construct: host or cells: PMA-differentiated THP-1 cells
Format: cell-based
Procedure: Measurement of IL-1β Production in PMA-Differentiated THP-1 Cells
THP-1 cells were purchased from the American Type Culture Collection and sub-cultured according to instructions from the supplier. Prior to experiments, cells were cultured in RPMI 1640 containing 10% heat inactivated FBS, penicillin (100 units/ml) and streptomycin (100 μg/ml), and maintained in log phase prior to experimental setup. Prior to the experiment THP-1 were treated with PMA (Phorbol 12-myristate 13-acetate) (10 μg/ml) for 24 hours. The day of the experiment the media was removed and attaching cells were treated with trypsin for 2 minutes, cells were then collected, washed with PBS (phosphate buffer saline), spin down, resuspended in 2% heat inactivated FBS with RPMI at a concentration of 1×10^6 cells/ml, and 100 μl was plated in a 96 well plate. Compounds were dissolved in dimethyl sulfoxide (DMSO) and added to the culture medium to achieve desired concentration (e.g. 100, 30, 10, 3, 1, 0.3 or 0.1 μM). Cells were incubated with compounds for 4 hours. Cell free supernatant was collected and the production of IL-1β was evaluated by ELISA. A vehicle only control was run concurrently with each experiment. Final DMSO concentration was 1%.
Measurement of IL-1β Production in PMA-Differentiated THP-1 Cells (Alternative Procedure)
THP-1 cells were purchased from the American Type Culture Collection and sub-cultured according to instructions from the supplier. Prior to experiments, cells were cultured in RPMI 1640 containing 10% heat inactivated FBS, penicillin (100 units/ml), streptomycin (100 μg/ml), HEPES (10 mM) and sodium pyruvate (1 mM) and maintained in log phase prior to experimental setup. Prior to the experiment, THP-1 cells were treated with PMA (Phorbol 12-myristate 13-acetate) (20 μg/ml) overnight. The day of the experiment, the media was removed and attached cells were treated with trypsin for 2 minutes, cells were then collected, washed with PBS (phosphate buffer saline), pelleted by centrifugation and resuspended in 2% heat inactivated FBS with RPMI at a concentration of 50,000 cells/well in a 384 well plate. Cell free supernatant was collected and the production of IL-1β was evaluated by ELISA. Compounds were dissolved in dimethyl sulfoxide (DMSO) and added to the culture medium to achieve desired concentration (e.g. 100, 30, 10, 3, 1, 0.3 or 0.1 μM). Cells were incubated with compounds for 2 hours. A vehicle only control was run concurrently with each experiment. Final DMSO concentration was 1%.
Measurement of IL-1β Production—hTRF Protocol (Second Alternative Procedure)
Serial dilutions of compounds in DMSO were added to low volume 384 well plates at 100 nl/well using an ECHO 550 acoustic dispenser (Labcyte) to achieve final starting concentration of 10 μM in assay.
THP-1 cells in RPMI (Gibco, 11875) media with 10% FBS at a density of 1×10^6 cell/ml in a T175 flask were treated with a final concentration of phorbol 12-myristate 13-acetate (PMA) (Sigma, P1585) of 50 ng/ml overnight at 37° C. at 5% CO2 for differentiation. Cells were harvested the next day after rinsing well wth dPBS using 0.5% trypsin. A cell solution was prepared of 1×10^6 cells/ml for 50,000 cells in 50 μl/well in RPMI media with 2% FBS. Cells were plated using a multichannel pipette onto the compound dilutions in Greiner, 384 well, black clear bottom tissue culture treated plates (781090). The plates were incubated in 37° C. incubator at 5% CO2 for 2 hours.
After the 2 hour incubation, the cell plates were spun in the centrifuge for 5 minutes at 1200 rpm. Using the Felix (CyBio), 8 μl of the supernatant was transferred to 384 well, low volume, white proxy plates. (Perkin Elmer, 6008230). A human IL1beta hTRF kit was used to analyze the supernatant (CISBIO, 62HIL1BPEG). The kit instructions were followed for preparing the IL1Beta standard curve and then the antibodies from the kit were diluted 1:40 rather than 1:20 as kit instructed. […]

T1 sequence (Q96P20 whole entry): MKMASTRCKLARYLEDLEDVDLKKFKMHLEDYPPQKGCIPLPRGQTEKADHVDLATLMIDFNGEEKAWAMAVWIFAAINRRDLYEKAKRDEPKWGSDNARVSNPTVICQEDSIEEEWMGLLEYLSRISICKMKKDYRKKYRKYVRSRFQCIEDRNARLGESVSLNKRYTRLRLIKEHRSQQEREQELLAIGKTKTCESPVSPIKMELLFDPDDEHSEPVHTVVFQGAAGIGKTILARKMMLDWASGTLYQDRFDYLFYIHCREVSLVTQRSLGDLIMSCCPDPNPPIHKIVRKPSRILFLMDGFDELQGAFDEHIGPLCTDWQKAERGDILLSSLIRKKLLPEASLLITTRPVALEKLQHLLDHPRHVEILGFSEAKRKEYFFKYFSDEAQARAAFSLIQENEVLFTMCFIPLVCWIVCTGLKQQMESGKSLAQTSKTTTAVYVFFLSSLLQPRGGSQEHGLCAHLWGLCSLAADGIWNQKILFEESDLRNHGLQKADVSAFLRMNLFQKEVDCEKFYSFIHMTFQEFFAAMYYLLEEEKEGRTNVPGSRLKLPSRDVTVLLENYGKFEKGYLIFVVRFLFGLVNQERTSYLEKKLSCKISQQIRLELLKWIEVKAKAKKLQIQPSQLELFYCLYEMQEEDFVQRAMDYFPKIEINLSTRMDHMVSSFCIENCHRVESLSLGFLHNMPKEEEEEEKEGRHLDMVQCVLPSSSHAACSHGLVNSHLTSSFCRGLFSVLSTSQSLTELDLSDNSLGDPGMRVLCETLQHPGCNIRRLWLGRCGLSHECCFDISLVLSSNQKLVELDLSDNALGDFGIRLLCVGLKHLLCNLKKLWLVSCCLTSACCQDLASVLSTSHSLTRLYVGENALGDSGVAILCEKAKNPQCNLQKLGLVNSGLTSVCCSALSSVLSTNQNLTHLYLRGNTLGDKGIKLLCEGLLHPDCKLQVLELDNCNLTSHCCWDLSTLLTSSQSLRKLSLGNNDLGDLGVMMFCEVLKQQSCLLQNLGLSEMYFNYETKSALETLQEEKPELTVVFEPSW

| Structure (SMILES) | EC50 [nM] |
| --- | --- |
| C=CC12CCC(CNc3cc(N)nc4cc(-c5ccn[nH]5)ccc34)(CC1)CO2 [Example 25, 7-(1H-pyrazol-3-yl)-N4-((1-vinyl-2-oxabicyclo[2.2.2]octan-4-yl)methyl)quinoline-2,4-diamine] | 2000 |
| Nc1nc(NCC2C[C@H]3CC[C@@H]2CC3)c2ccc(-c3cc[nH]n3)cc2n1 (stereo partly drawn) [Example 39] | 860 |
| Nc1cc(N2C3CCC2COC3)c2ncc(-c3cc[nH]n3)cc2n1 [Example 24, 4-(3-oxa-8-azabicyclo[3.2.1]octan-8-yl)-7-(1H-pyrazol-3-yl)-1,5-naphthyridin-2-amine] | 890 |
| Nc1cc(NC23CC(CO)(C2)C3)c2ccc(-c3ccn[nH]3)cc2n1 [Example 16, (3-((2-amino-7-(1H-pyrazol-5-yl)quinolin-4-yl)amino)bicyclo[1.1.1]pentan-1-yl)methanol] | 130 |
| Nc1cc(NCC23CCC(CO)(CC2)OC3)c2ccc(-c3ccsc3)cc2n1 [Example 51, (4-(((2-amino-7-(thiophen-3-yl)quinolin-4-yl)amino)methyl)-2-oxabicyclo[2.2.2]octan-1-yl)methanol] | 1860 |
| Nc1nc(N2CC3CC2CO3)c2ccc(-c3cc[nH]n3)cc2n1 (racemic) [Example 9, rac-4-(2-oxa-5-azabicyclo[2.2.1]heptan-5-yl)-7-(1H-pyrazol-3-yl)quinazolin-2-amine] | 680 |
| Nc1nc(NC23CC4CC(CC(O)(C4)C2)C3)c2ccc(-c3cc[nH]n3)cc2n1 [Example 11, (1s,3r,5R,7S)-3-((2-Amino-7-(1H-pyrazol-3-yl)quinazolin-4-yl)amino)adamantan-1-ol] | 2110 |
| Nc1nc(NC2CC3(CC3)C2)c2ccc(-c3cc[nH]n3)cc2n1 [Example 37] | 300 |
| COC(=O)C12CCC(CNc3cc(N)nc4cc(-c5cc[nH]n5)ccc34)(CC1)CC2 [Example 50, methyl 4-(((2-amino-7-(1H-pyrazol-3-yl)quinolin-4-yl)amino)methyl)bicyclo[2.2.2]octane-1-carboxylate] | 1730 |

The next lines start with the values.

| EC50 [nM] | Structure (SMILES) |
| --- | --- |
| 30 | Nc1cc(NC2CC3(CC(O)C3)C2)c2ccc(-c3ccn[nH]3)cc2n1 (single isomer, unassigned) [Example 26A, (Sa)-6-(2-amino-7-(1H-pyrazol-5-yl)quinolin-4-ylamino)spiro[3.3]heptan-2-ol] |
| 320 | Nc1cc(NC23CC(C2)C3)c2ccc(-c3ccn[nH]3)cc2n1 [Example 19] |
| 3000 | Nc1cc(N[C@H]2C3CCC(C3)[C@H]2CO)c2ccc(-c3ccn[nH]3)cc2n1 (single isomer, unassigned) [Example 18] |
| 640 | Nc1cc(N[C@@H]2C[C@H]3C[C@@H](O)C[C@H]3C2)c2ccc(-c3ccn[nH]3)cc2n1 [Example 14, (2r,3aR,5r,6aS)-5-((2-amino-7-(1H-pyrazol-5-yl)quinolin-4-yl)amino)octahydropentalen-2-ol] |
| 2120 | Nc1nc(N[C@H]2C[C@@H]3C[C@H]2[C@@H](O)C3)c2ccc(-c3ccn[nH]3)cc2n1 (single isomer, unassigned) [Example 45A] |
| 1670 | Nc1cc(N[C@H]2[C@@H]3CC[C@@H](C3)[C@H]2CO)c2ccc(-c3ccn[nH]3)cc2n1 (racemic) [Example 17, rac-((1R,2S,3R,4S)-3-((2-amino-7-(1H-pyrazol-5-yl)quinolin-4-yl)amino)bicyclo[2.2.1]heptan-2-yl)methanol] |
| 200 | Nc1nc(NC23CC(CO)(C2)C3)c2ccc(-c3ccn[nH]3)cc2n1 [Example 7] |
| 3700 | Nc1nc(N[C@@H]2C[C@H]3CC[C@]2(CO)O3)c2ccc(-c3ccn[nH]3)cc2n1 (racemic) [Example 8] |
| 3000 | Nc1nc(N[C@H]2C[C@@H]3C[C@H]2[C@@H](O)C3)c2ccc(-c3ccn[nH]3)cc2n1 (single isomer, unassigned) [Example 45B] |
| 1640 | Nc1nc(N[C@H]2C[C@@H]3C[C@H]2C[C@H]3O)c2ccc(-c3ccn[nH]3)cc2n1 (single isomer, unassigned) [Example 43A] |
| 3960 | Nc1nc(NCC23CC(CO)(C2)C3)c2ccc(-c3ccn[nH]3)cc2n1 [Example 34, (3-(((2-amino-7-(1H-pyrazol-5-yl)quinazolin-4-yl)amino)methyl)bicyclo[1.1.1]pentan-1-yl)methanol] |
| 740 | Nc1nc(N[C@H]2C[C@@H]3C[C@H]2C[C@H]3O)c2ccc(-c3ccn[nH]3)cc2n1 (racemic) [Example 42] |
| 120 | Nc1nc(N[C@@H]2C[C@H]3CC[C@@H]2O3)c2ccc(-c3ccn[nH]3)cc2n1 (racemic) [Example 1, rac-N4-((1R,2S,4S)-7-oxabicyclo[2.2.1]heptan-2-yl)-7-(1H-pyrazol-5-yl)quinazoline-2,4-diamine] |

These molecules were tested against T2, human TLR7 (Homo sapiens, UniProt Q9NYK1) (assay: In vitro human TLR7 binding reporter assay (HEK-Blue cells, NF-kB/AP1-inducible SEAP reporter)). Settings: HEK-Blue cells expressing TLR7, SEAP reporter; read-out: TLR7 agonist EC50.
T2 construct: host or cells: human HEK-Blue cells co-expressing TLR7 and an NF-kB/AP1-inducible SEAP reporter
T2 sequence (Q9NYK1 27-1049): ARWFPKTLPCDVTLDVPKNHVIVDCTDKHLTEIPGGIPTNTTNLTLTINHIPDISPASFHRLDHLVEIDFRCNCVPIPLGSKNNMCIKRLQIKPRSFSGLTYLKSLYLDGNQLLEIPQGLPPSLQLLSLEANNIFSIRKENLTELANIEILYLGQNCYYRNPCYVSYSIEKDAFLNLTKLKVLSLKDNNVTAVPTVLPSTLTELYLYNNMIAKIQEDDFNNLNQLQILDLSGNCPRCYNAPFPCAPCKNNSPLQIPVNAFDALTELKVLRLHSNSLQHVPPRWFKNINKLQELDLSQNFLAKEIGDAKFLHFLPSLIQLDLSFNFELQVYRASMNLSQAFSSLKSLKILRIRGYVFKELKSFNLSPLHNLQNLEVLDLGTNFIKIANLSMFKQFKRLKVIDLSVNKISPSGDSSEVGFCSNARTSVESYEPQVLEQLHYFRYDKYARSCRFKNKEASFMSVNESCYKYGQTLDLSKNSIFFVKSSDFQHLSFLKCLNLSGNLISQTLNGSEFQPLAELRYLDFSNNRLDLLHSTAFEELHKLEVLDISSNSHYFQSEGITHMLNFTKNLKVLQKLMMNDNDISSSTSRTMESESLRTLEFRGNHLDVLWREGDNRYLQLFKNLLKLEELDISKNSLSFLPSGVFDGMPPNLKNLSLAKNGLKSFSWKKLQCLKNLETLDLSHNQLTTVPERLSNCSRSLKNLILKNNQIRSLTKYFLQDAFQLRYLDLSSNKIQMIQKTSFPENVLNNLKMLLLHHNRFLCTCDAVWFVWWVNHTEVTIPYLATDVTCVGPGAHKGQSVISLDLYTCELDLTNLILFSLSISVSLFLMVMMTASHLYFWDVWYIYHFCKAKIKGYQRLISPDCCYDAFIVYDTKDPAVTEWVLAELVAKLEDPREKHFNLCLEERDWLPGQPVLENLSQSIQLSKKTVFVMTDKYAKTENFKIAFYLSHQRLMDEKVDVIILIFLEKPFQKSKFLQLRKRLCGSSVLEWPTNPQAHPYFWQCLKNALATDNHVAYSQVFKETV
Format: cell-based
Procedure: In Vitro Human TLR7 and TLR8 Binding Reporter Assays
Logarithmically-growing human HEK-Blue cells co-expressing a TLR7 or TLR8 gene and a NF-kB/AP1-inducible SEAP (secreted embryonic alkaline phosphatase; Invivogen, San Diego, CA) reporter gene are added to individual wells of a 384-well plate (15,000 cells per 20 μL per well) and maintained for 24 h at 37° C., 5% CO2. Test compounds or DMSO are distributed to separate wells the next day using acoustic liquid handling technology (100 nL per well) and cells are subsequently incubated for 18 h at 37° C., 5% CO2. Cellular SEAP production is measured using an Envision plate reader instrument thirty minutes after adding freshly-made Quanti-Blue reagent (prepared by following manufacturer instructions; Invivogen, San Diego, CA) to the HEK-Blue TLR Nf-kB-SEAP cell reactions. All EC50 values (half-maximal effective concentration) are determined using proprietary data analysis software.

| EC50 [nM] | Structure (SMILES) |
| --- | --- |
| < 50000 | C=CC12CCC(CNc3cc(N)nc4cc(-c5ccn[nH]5)ccc34)(CC1)CO2 [Example 25, 7-(1H-pyrazol-3-yl)-N4-((1-vinyl-2-oxabicyclo[2.2.2]octan-4-yl)methyl)quinoline-2,4-diamine] |
| < 50000 | Nc1cc(NC23CC(CO)(C2)C3)c2ccc(-c3ccn[nH]3)cc2n1 [Example 16, (3-((2-amino-7-(1H-pyrazol-5-yl)quinolin-4-yl)amino)bicyclo[1.1.1]pentan-1-yl)methanol] |
